Molecular target: T1, casein kinase 1ε (Homo sapiens, UniProt P49674)
T1 construct: made in house
Test: Casein Kinase Epsilon 33P-ATP Filter Plate Assay for Screening CK1ε Inhibitors
Type: biochemical
Protocol: Casein Kinase Epsilon ^33P-ATP Filter Plate Assay for Screening CK1ε Inhibitors
Purpose: This assay measures the ability of compounds to inhibit the phosphorylation of the substrate casein by the enzyme casein kinase 1ε using an in vitro ^33P-ATP filtration assay.
The above are stored as 100 μL aliquots at minus 80° C. • Compounds: • Supply compounds for testing as frozen 10 mM compound stock dissolved in 100% DMSO. Assay Conditions: • Final total assay volume per well is equal to 50 μL that one prepares as follows: • 5 μL of diluted compound stock (10, 1, 0.1, 0.01 or 0.001 μM), • 5 μL of dephosphorylated casein final concentration 0.2 μg/μL, • 20 μL of CK1ε final concentration 3 ng/μL, and • 20 μL of γ-^33P-ATP final concentration 0.02 μCi/μL mixed with cold ATP (10 μM final). Methodology: • 1. Prepare 500 mL of fresh assay buffer: 50 mM Tris pH 7.5, 10 nm MgCl2, 2 mM DTT and 1 mM EGTA • 2. Obtain compounds to be evaluated as 10 μL of 10 mM stock dissolved in 100% DMSO. Use a Biomek 2000 liquid handling robot, make serial dilutions to yield 10, 1, 0.1, 0.01 and 0.001 μM final compound dilutions added as 5 μL additions to Falcon U bottom plates. […] A routine screening assay will consist of 32 compounds, which equals 4 assay plates. • 3.
• 4. Add 5 μL of compound as indicated, then add 5 μL of dephosphorylated casein (dissolved in distilled H20) (0.2 μg/μL) and 20 μL CK1ε (3 ng/μL) to the appropriate wells. • 5. Finally add 20 μL γ-^33P-ATP (0.02 μCi/μL)/10 μM cold ATP (equals approximately 2×10^6 CPM per well). • 6. Vortes the Falcon U-Bottom assay plate containing the above 50 μL reaction volume and then incubate at room temperature for 2 hours. • 7. At the end of 2 hours, stop the reaction by the addition of 65 μL of ice cold 2 mM cold ATP (made up in assay buffer) to the assay plates using a Beckman Multimek. • 8. At the same time add 25 μL 100% ice cold TCA made up in distilled H20 to a matching number of Millipore MAPH filter plates. • 9. Using a handheld 8-channel pipettor, transfer 100 μL of the reaction mixture from the Falcon U-Bottom Plate to the Millipore MAPH filter plates presoaked with TCA. • 10. Mix the Millipore MAPH filter plates gently and allow to sit at room temperature for at least 30 minutes to precipitate the proteins. • 11. After 30 minutes, place the filter plates on a Millipore vacuum manifold and filter at no more than 8 mm Hg as the MAPH filters tend to “air lock” at higher vacuum settings. • 12. […] Allow the plates to dry overnight at room temperature. The next day add 40 μL Packard Microscint-20 Scintillation Fluid per well using a Titertek Multidrop dispenser; seal the plates and count for 2 minutes/well in a Packard Topcount NXT Scintillation Counter (to provide CPM values/well). Calculation: • 1. Import Counts Per Minute (CPM) data into a proprietary data calculation and archiving database (Activity Base by IDBS version 5.0). • 2. Column 1 for each plate reflects total phosphorylation activity of the enzyme in the absence of any inhibiting compound and thus represents 100%. Column 12 reflects any nonspecific phosphorylation/retained radioactivity activity in the absence of inhibiting compound and enzyme. Typically one observes approximately 1% of Total CPMs that are “nonspecific”. • 3.

T1 sequence (P49674 whole entry): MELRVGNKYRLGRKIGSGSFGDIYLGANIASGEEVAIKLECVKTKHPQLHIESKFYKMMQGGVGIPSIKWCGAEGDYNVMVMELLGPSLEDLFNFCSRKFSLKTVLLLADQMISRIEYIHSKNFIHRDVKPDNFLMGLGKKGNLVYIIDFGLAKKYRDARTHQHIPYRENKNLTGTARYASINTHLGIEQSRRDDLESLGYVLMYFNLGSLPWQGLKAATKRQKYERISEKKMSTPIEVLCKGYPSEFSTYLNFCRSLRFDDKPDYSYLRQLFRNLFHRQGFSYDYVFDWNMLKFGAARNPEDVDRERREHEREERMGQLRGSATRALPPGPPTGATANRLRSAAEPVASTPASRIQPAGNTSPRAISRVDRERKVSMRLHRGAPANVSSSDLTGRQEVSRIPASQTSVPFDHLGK

SMILES | Ki
NC(=O)c1[nH]c2ccc(CN3CCC4(CC3)OCCO4)cc2c1Sc1ccccc1 [Iz, 5-(1,4-Dioxa-8-aza-spiro[4,5]dec-8-ylmethyl)-3-phenylsulfanyl-1H-indole-2-carboxylic acid amide] | 320 nM
CCNCc1ccc2[nH]c(C(N)=O)c(Sc3ccccc3)c2c1 [Iad, 5-Ethylaminomethyl-3-phenylsulfanyl-1H-indole-2-carboxylic acid amide] | 90 nM
COc1ccccc1CNCc1ccc2c(Sc3ccccc3)c(C(N)=O)[nH]c2c1 [IIac, 6-[(2-Methoxybenzylamino)methyl]-3-phenylsulfanyl-1H-indole-2-carboxylic acid amide] | 240 nM
CN(C)c1ccc(CNCc2ccc3c(Sc4ccccc4)c(C(N)=O)[nH]c3c2)cc1 [IIe, 6-[(4-Dimethylaminobenzylamino)methyl]-3-phenylsulfanyl-1H-indole-2-carboxylic acid amide] | 730 nM
COc1ccc(CNCc2ccc3c(Sc4ccccc4)c(C(N)=O)[nH]c3c2)cc1 [IIg, 6-[(4-Methoxybenzylamino)methyl]-3-phenylsulfanyl-1H-indole-2-carboxylic acid amide] | 520 nM
NC(=O)c1[nH]c2ccc(CN3CCCCC3)cc2c1Sc1ccccc1 [Il, 3-Phenylsulfanyl-5-piperidin-1ylmethyl-1H-indole-2-carboxylic acid amide] | 880 nM
NC(=O)c1[nH]c2cc(CN(C/C=C/c3ccco3)C/C=C/c3ccco3)ccc2c1Sc1ccccc1 [IIag] | 6920 nM
NC(=O)c1[nH]c2cc(CNCc3cc(F)cc(C(F)(F)F)c3)ccc2c1Sc1ccccc1 [IIn, 6-[(3-Fluoro-5-trifluoromethylbenzylamino)methyl]-3-phenylsulfanyl-1H-indole-2-carboxylic acid amide] | 4990 nM
NC(=O)c1[nH]c2cc(CNCc3cccn3S(=O)(=O)c3ccccc3)ccc2c1Sc1ccccc1 [IIas, 6-{[(1-Benzenesulfonyl-1H-pyrrol-2-ylmethyl)amino]methyl}-3-phenylsulfanyl-1H-indole-2-carboxylic acid amide] | 6250 nM
COc1cc(CNCc2ccc3c(Sc4ccccc4)c(C(N)=O)[nH]c3c2)cc(Br)c1OC [IIai, 6-[(3-Bromo-4,5-dimethoxybenzylamino)methyl]-3-phenylsulfanyl-1H-indole-2-carboxylic acid amide] | 600 nM
Cc1ccccc1CNCc1ccc2c(Sc3ccccc3)c(C(N)=O)[nH]c2c1 [IIz, 6-[(2-Methylbenzylamino)methyl]-3-phenylsulfanyl-1H-indole-2-carboxylic acid amide] | 570 nM
NC(=O)c1[nH]c2cc(CNCc3ccc(C(F)(F)F)cc3)ccc2c1Sc1ccccc1 [IIm, 3-Phenalsulfanyl-6-[(4-trifluoromethylbenzylamino)methyl]-1H-indole-2-carboxylic acid amide] | 4880 nM
NC(=O)c1[nH]c2cc(CNCc3cccc([N+](=O)[O-])c3)ccc2c1Sc1ccccc1 [IIk, 6-[(3-Nitrobenzylamino)methyl]-3-phenylsulfanyl-1H-indole-2-carboxylic acid amide] | 1190 nM
NC(=O)c1[nH]c2ccc(CNc3ccc4ncccc4c3)cc2c1Sc1ccccc1 [Iu, 3-Phenylsulfanyl-5-(quinolin-6-ylaminomethyl)-1H-indole-2-carboxylic acid amide] | 600 nM
NC(=O)c1[nH]c2ccc(CN3CCCC3CO)cc2c1Sc1ccccc1 (stereo not shown) [Iw, 5-(2-Hydroxymethyl-pyrrolidin-1-ylmethyl)-3-phenylsulfanyl-1H-indole-2-carboxylic acid amide] | 65 nM
CCCNCc1ccc2[nH]c(C(N)=O)c(Sc3ccccc3)c2c1 [Iae, 3-Phenylsulfanyl-5-propylaminomethyl-1H-indole-2-carboxylic acid amide] | 580 nM

SMILES | Ki
NC(=O)c1[nH]c2cc(CNCc3cc(Cl)cc(Cl)c3O)ccc2c1Sc1ccccc1 [IIah, 6-[(3,5-Dichloro-2-hydroxybenzylamino)methyl]-3-phenylsulfanyl-1H-indole-2-carboxylic acid amide] | 3500 nM
NC(=O)c1[nH]c2ccc(CN3CCC(CO)CC3)cc2c1Sc1ccccc1 [Ih, 5-(4-Hydroxymethylpiperidin-1-ylmethyl)-3-phenylsulfanyl-1H-indole-2-carboxylic acid amide] | 1740 nM
COc1cc(C#N)c(NCc2ccc3[nH]c(C(N)=O)c(Sc4ccccc4)c3c2)cc1OC [Iab, 5-[(2-Cyano-4,5-dimethoxyphenylamino)methyl]-3-phenylsulfanyl-1H-indole-2-carboxylic acid amide] | > 10000 nM
NC(=O)c1[nH]c2cc(CNCc3cccc(C(F)(F)F)c3F)ccc2c1Sc1ccccc1 [IIab, 6-[(2-Fluoro-3-trifluoromethylbenzylamino)methyl]-3-phenylsulfanyl-1H-indole-2-carboxylic acid amide] | 4040 nM
NC(=O)c1[nH]c2cc(CNCc3ccc(Cl)cc3)ccc2c1Sc1ccccc1 [IIi, 6-[(4-Chlorobenzylamino)methyl]-3-phenylsulfanyl-1H-indole-2-carboxylic acid amide] | 390 nM
NCc1ccc2c(Sc3ccccc3)c(C(N)=O)[nH]c2c1 [IIa, 6-Aminomethyl-3-phenylsulfanyl-1H-indole-2-carboxylic acid amide] | 97 nM
NC(=O)c1[nH]c2cc(CNCc3ccc([N+](=O)[O-])s3)ccc2c1Sc1ccccc1 [IIal, 6-{[(5-Nitrothiophen-2-ylmethyl)amino]methyl}-3-phenylsulfanyl-1H-indole-2-carboxylic acid amide] | 1210 nM
COC(=O)c1ccc(CNCc2ccc3c(Sc4ccccc4)c(C(N)=O)[nH]c3c2)cc1 [IIam, 4-{[(2-Carbamoyl-3-phenylsulfanyl-1H-indol-6-ylmethyl)amino]methyl}benzoic acid methyl ester] | 2420 nM
NCCCC[C@H](N)C(=O)NCc1ccc2c(Sc3ccccc3)c(C(N)=O)[nH]c2c1 [IIad, 6-[(2,6-Diaminohexanoylamino)methyl]-3-phenylsulfanyl-1H-indole-2-carboxylic acid amide] | 110 nM
NC(=O)c1[nH]c2ccc(CN3CCCC(C(N)=O)C3)cc2c1Sc1ccccc1 (stereo not shown) [Io, 5-(3-Carbamoylpiperidin-1-ylmethyl)-3-phenylsulfanyl-1H-indole-2-carboxylic acid amide] | ~10000 nM
COc1cccc(NCc2ccc3[nH]c(C(N)=O)c(Sc4ccccc4)c3c2)c1 [Iag, 5-[(3-Methoxyphenylamino)methyl]-3-phenylsulfanyl-1H-indole-2-carboxylic acid amide] | 2230 nM
CC(N)C(=O)NCc1ccc2c(Sc3ccccc3)c(C(N)=O)[nH]c2c1 (stereo not shown) [IIo, 6-[(2-Aminopropionylamino)methyl]-3-phenylsulfanyl-1H-indole-2-carboxylic acid amide] | 170 nM
NC(=O)c1[nH]c2ccc(CNc3cccc(C(F)(F)F)c3)cc2c1Sc1ccccc1 [Iac, 3-Phenylsulfanyl-5-[(3-trifluoromethyl-phenylamino)methyl]-1H-indole-2-carboxylic acid amide] | ~10000 nM
Cc1cccc(CNCc2ccc3c(Sc4ccccc4)c(C(N)=O)[nH]c3c2)c1 [IIaa, 6-[(3-Methylbenzylamino)methyl]-3-phenylsulfanyl-1H-indole-2-carboxylic acid amide] | 460 nM
NC(=O)c1[nH]c2cc(CNCc3ccccc3)ccc2c1Sc1ccccc1 [IIc, 6-(Benzylaminonmethyl)-3-phenylsulfanyl-1H-indole-2-carboxylic acid amide] | 720 nM
